According to patent US20160007600A1, “SYNTHETIC LIPOCHITOOLIGOSACCHARIDE ANALOGS FOR ENHANCING PLANT PERFORMANCE” (E.I. DU PONT DE NEMOURS AND COMPANY, priority 2013, published 2016):

What was measured:
soybean seeds [1] = assay: Plant growth assay (radical length of germinating seed); type: in vivo; conditions: soybean seeds germinated 24 hr with 10^−7 M compound, then additional 40 hr open to light at room temperature
Method: Plant growth assay Seeds germinated for 24 hr using the seed germination assay above were left open to light for another 40 hr. The radical length was measured and the percentage of germinating seed with radical length of greater than 1.5 cm was determined.

soybean seeds [2] = assay: Seed germination assay; type: in vivo; conditions: for germination in 24 hours: test compound 10^−7 M in DI-water, 24 hr in dark at room temperature, radicle emergence as indicator, five repeats of 20 seeds
Method: Materials were all sterilized before use. An aqueous solution of the test compound (25 mL, 10^−7 M in DI-water) was prepared for a set of five repeat experiments. Five Petri dishes and 100 soybean seeds were used to test one compound. A piece of Whatman filter paper was used to cover the inner side of each Petri dish to allow uniform distribution of testing solution. Twenty soybean seeds were placed on the filter paper area of one Petri dish. 5 mL of the test compound solution was carefully poured in the Petri dish. Control experiments were set up the same way with 20 soybean seeds and 5 mL of DI-water per dish without any compounds. The lid was placed on the Petri dish and was sealed with Para-film. Five dishes with repeat experiments were stacked. One stack of dishes was wrapped twice with aluminum foil to prevent the seeds receiving any light. The stacks were transferred to an incubator maintained at room temperature and the seeds were germinated in dark. After 24 hr, the stacks were pulled out for measurement. The number of germinated seeds was counted and the percent of germination on each dish was calculated. Radicle emergence was used as the germination indicator. The dishes were placed unwrapped at room temperature for one day and the number of germinated seeds was counted to assure seeds were able to germinate and different germination yields were not caused by bad seed quality. Seeds showing above 90% of germination were considered normal. The standard deviation of five repeats was calculated. Test results with 10% or lower standard deviation was considered good. Compounds acting as plant performance enhancers should promote a significant increase in average percentage of germination compared to the control above the standard deviation.

Compound | germinating seed with radical length longer than 1.5 cm (soybean seeds [1]) | germination in 24 hours (soybean seeds [2]) | efficacy for enhanced seed germination and radical growth (summary in words) (soybean seeds [2]; conclusion from the germination and plant growth assays)
CO[C@@H]1O[C@H](CO)[C@@H](O)[C@H](O)[C@H]1NC(=O)/C=C/C=C/c1ccccc1 [Example 1, (2E,4E)-N-((2R,3R,4R,5S,6R)-4,5-dihydroxy-6-(hydroxymethyl)-2-methoxytetrahydro-2H-pyran-3-yl)-5-phenylpenta-2,4-dienamide] | 69% | 75% | 
CO[C@@H]1O[C@H](CO)[C@@H](O)[C@H](O)[C@H]1N [(2R,3S,4R,5R,6R)-5-amino-2-(hydroxymethyl)-6-methoxytetrahydro-2H-pyran-3,4-diol, reference compound] | 45% | 53% | insignificant efficacy
CO[C@@H]1O[C@H](CO)[C@@H](O)[C@H](O)[C@H]1NC(=O)C#Cc1ccccc1 [Example 5, N-((2R,3R,4R,5S,6R)-4,5-dihydroxy-6-(hydroxymethyl)-2-methoxytetrahydro-2H-pyran-3-yl)-3-phenylpropiolamide] | 95% | 86% | 
CO[C@@H]1O[C@H](CO)[C@@H](O)[C@H](O)[C@H]1NC(=O)/C=C/c1cccc(C)c1 [Example 3, (E)-N-((2R,3R,4R,5S,6R)-4,5-dihydroxy-6-(hydroxymethyl)-2-methoxytetrahydro-2H-pyran-3-yl)-3-(m-tolyl)acrylamide] | 56% | 61% | 
CO[C@@H]1O[C@H](CO)[C@@H](O)[C@H](O)[C@H]1NC(=O)/C=C/c1cccc(C(F)(F)F)c1 [Example 4, (E)-N-((2R,3R,4R,5S,6R)-4,5-dihydroxy-6-(hydroxymethyl)-2-methoxytetrahydro-2H-pyran-3-yl)-3-(3-(trifluoromethyl)phenyl)acrylamide] | 69% | 75% | 
CO[C@@H]1O[C@H](CO)[C@@H](O)[C@H](O)[C@H]1NC(=O)/C=C/c1ccc(C)cc1 [Example 2, (E)-N-((2R,3R,4R,5S,6R)-4,5-dihydroxy-6-(hydroxymethyl)-2-methoxytetrahydro-2H-pyran-3-yl)-3-(p-tolyl)acrylamide] | 66% | 70% | 
